Test results published in ChEMBL document CHEMBL3507680, “University of Dundee, Gates Library screen for HepG2 cell viability”.

Assay: Human HepG2 cell viability assay in 384 well format
Format: toxicity, cell-based
Set-up: dose 125 nL, time 70.5 hour; concentration not given beside the values
Conditions: HepG2 cells, read-out: Inhibition

| SMILES | cytotoxicity at 70.5 h [%] |
| --- | --- |
| CN1CCCC(C(=O)N2CCC(Oc3ccc(C#N)cn3)CC2)C1 (configuration not stated) | -5.58 |
| Cc1cc(-c2cnc(C(C)C)nc2CN(C)C(=O)c2ccccn2)on1 | -6.43 |
| CNS(=O)(=O)c1c(C)sc2ccccc12 | -0.847 |
| CCOc1ccnc(N2CCCN(c3nc(CC)ns3)CC2)n1 | -2.91 |
| Cc1ccc(CCC(C)NC2CCN(C(N)=O)CC2)cc1 (configuration not stated) | -1.06 |
| CC(CO)NC(=O)c1ccc2[nH]/c(=N\S(C)(=O)=O)sc2c1 (configuration not stated) | -3.5 |
| CCn1c(C)nnc1CN(C)C1CCN(Cc2cnc(C)cn2)C1 (configuration not stated) | -0.885 |
| CN(Cc1cccc(C(N)=O)c1)c1ncc(C#N)cc1Cl | -9.21 |
| CC[C@@H]1N(Cc2ccsc2)CCC[C@]12CCC(=O)N2CCOC | -17.5 |
| Cc1ccc(CN2CCc3onc(C(=O)Nc4cccnc4)c3C2)o1 | -7.97 |
| O=C1NCCCc2[nH]c(Cc3cccc(F)c3)nc21 | -8.57 |
| CC(C(=O)NC(N)=O)N1CCN(c2ccc(C#N)cc2F)CC1 (configuration not stated) | -19.1 |
| CC(C)(C)CN[C@@H]1CO[C@H](CNC(=O)Nc2ccccc2)[C@H]1O | -1.92 |
| Cc1cc2nc(C(C)C)cc(N3CCC(N(C)C)C3)n2n1 (configuration not stated) | 2.59 |
| CCC1(CO)CCCN(Cc2nccn2Cc2ccccc2)C1 (configuration not stated) | -4.15 |
| Cc1nc(N(C)C)nc2c1COCC21CCN(CC2CC2)C1 (configuration not stated) | 5.56 |
| CC(Nc1ncnc2c1CCNCC2)c1nc2c(s1)CCCC2 (configuration not stated) | -5.82 |
| Cc1c(C(=O)NC(C)C(C)C)nnn1-c1cccc2c1CCN(C)C2 (configuration not stated) | 5.93 |
| Cc1ccc(N2CCOCC3(CCCN(c4ncc(F)cn4)C3)C2)nn1 (configuration not stated) | -3.89 |
| CCn1ccnc1C1CCCN(c2nccc3ccccc23)C1 (configuration not stated) | -8.19 |
| c1cncc(-c2c[nH]c([C@@H]3COCCN3Cc3ccncc3)n2)c1 | 1.27 |

| SMILES | cytotoxicity at 70.5 h [%] |
| --- | --- |
| Cc1cccc(-c2ncc(CNC(C)Cc3ccncc3)cn2)c1 (configuration not stated) | -3.63 |
| Cc1n[nH]c(C)c1CC(=O)N1CCN(C)C2(CCNC(=O)CC2)C1 (configuration not stated) | -4.03 |
| CSCc1cc(C(=O)NC2(C#N)CCSC2)ccc1F (configuration not stated) | -8.71 |
| CC(=O)Nc1nc(C2CCN(C(=O)c3cccnc3)CC2)cs1 | -15.5 |
| Cc1cnn(CCC(=O)N2CCCN(c3ccccc3C#N)CC2)c1 | -1.64 |
| CC(C)N1Cc2c(C(=O)N3CCN(C)CC3)nn(C)c2C1 | -0.433 |
| COc1ccc(C(CO)NC(=O)Nc2cccc(F)c2)cc1 (configuration not stated) | -4.24 |
| COCC(=O)Nc1nnc2n(Cc3cccc(OC)c3)[nH]c(C)c1-2 | -5.86 |
| Cc1cccc(CN(C)Cc2nc3c(cnn3C)c(=O)[nH]2)c1 | -14.2 |
| Cc1nc(CCNC(=O)C2CCN(C(C)C)CC2)sc1Cl | -0.288 |
| Cc1c(C(=O)O)cnn1-c1ccc(-c2nc(C(C)(C)C)no2)cn1 | -8.45 |
| O=C(OCCF)c1cccc(C(=O)N2CCCC2)n1 | 26.7 |
| CN(C)C(=O)C1CN(Cc2ccsc2)Cc2ccnn2C1 (configuration not stated) | 12.7 |
| COCc1cc(CC2(NCc3ccccc3Cl)COC2)no1 | -3.62 |
| Cc1cnn(CC2CCCN2C(=O)c2ccc(OC(C)C)nc2)c1 (configuration not stated) | -15 |
| COCCN1C[C@@H]2CN(C(=O)[C@H]3CCCO3)C[C@@H]2C1=O | -15.9 |
| CC(C)N(C)Cc1nnc2n1CCN(Cc1ccncc1)CC2 | -3.24 |
| CCn1cc(CN(C)S(=O)(=O)N2CCCC2c2ccco2)cn1 (configuration not stated) | -1.42 |
| O=C(NCCCn1cccn1)C1(c2ccc(Br)cc2)CC1 | -2.34 |
| O=S(=O)(C1CC1)N1CCCn2cnc(COc3cccnc3)c2C1 | -2.62 |
| Cc1cccc(CN2CCc3ncnc(Oc4cccnc4)c3CC2)n1 | 27.9 |

| SMILES | cytotoxicity at 70.5 h [%] |
| --- | --- |
| Cc1cc(CN2CCC(CNC(=O)c3ccc4[nH]cnc4c3)C2)[nH]n1 (configuration not stated) | -6.71 |
| Cc1noc(C)c1CN1CCO[C@H]2CN(Cc3cccc(F)c3)C[C@H]21 | -13.7 |
| CN(Cc1ccsc1)C(=O)c1n[nH]c(N)c1-c1ccccc1 | -1.37 |
| OC1(CNc2ccc(Br)cn2)CCC1 | 16.3 |
| CN1CCN(Cc2noc(CCc3nc(-c4ccccc4)no3)n2)CC1 | -6.63 |
| Cc1oc(C(=O)O)cc1S(=O)(=O)Nc1cccc(-c2nccs2)c1 | 6.48 |
| O=C(NCC1(O)CCC1)c1c(O)cc(Cl)cc1Cl | -1.39 |
| CC1c2cccn2CCN1S(=O)(=O)N1CCCCCC1 (configuration not stated) | -14.2 |
| c1cnnc(N2CCCC(NCc3cn4ccccc4n3)C2)c1 (configuration not stated) | 15.8 |
| CCOc1ccc(C(=O)Nc2c(C)nc3scc(C)n3c2=O)cc1 | -0.312 |
| O=C(c1ccccc1)N1C[C@@H]2CC[C@H](C1)N(S(=O)(=O)c1cccnc1)C2 | -7.07 |
| Cc1ccc(N2CC[C@H]3[C@@H]2CCC(=O)N3CCN2CCOCC2)nn1 | -6.53 |
| O=C(Nc1ccc(Cl)cn1)c1nn(C2CCS(=O)(=O)C2)c2c1CCCC2 (configuration not stated) | -23 |
| CC1CN(C)CCN1C(=O)c1ccn(-c2cccc(F)c2)n1 (configuration not stated) | -15.8 |
| CCOCC1CN(C(=O)c2cccs2)Cc2cnn(CC3CC3)c21 (configuration not stated) | -6.77 |
| COc1ccc(Cc2noc(C3=NN(C)C(=O)CC3)n2)cc1OC | -2.26 |
| O=C(O)CC(CC(=O)NCc1ccsc1)c1cccs1 (configuration not stated) | -5.7 |
| CC(=O)N[C@@H]1CN(CC(=O)NCc2ccccc2C)C[C@H]1C(C)C | -6.75 |
| CNC(=O)N1CCC2(CC1)c1ncc(-c3cccc(F)c3)n1CCN2C | -1.6 |
| CC(C)C(=O)NCc1cccc(N2CCCCC2=O)c1 | -12.2 |
| CCc1ccc(NC(=O)C2CCN(C(=O)COC)CC2)cc1 | -9.16 |

| SMILES | cytotoxicity at 70.5 h [%] |
| --- | --- |
| Cc1ccc(O)c(CNC2CCc3nc(C)nn3C2)n1 (configuration not stated) | -0.718 |
| CCn1ncc2c(C(F)(F)F)cc(-c3cnn(C)c3)nc21 | -11.4 |
| Cc1ccccc1C(N)c1ccncc1 (configuration not stated) | -3.67 |
| O=C(Cn1nnn(-c2cccs2)c1=O)NCC1CCOC1 (configuration not stated) | 11.8 |
| CCC(C)NS(=O)(=O)Cc1cccc(NC(=O)c2ccc[nH]2)c1 (configuration not stated) | -2.71 |
| Cc1ccccc1C(=O)NCC(=O)NCc1ccccn1 | 15.5 |
| CCCNC(=O)C(C)Nc1ccc(OCC)cc1 (configuration not stated) [PROPETAMIDE] | -8.27 |
| CC(C)c1nc(S(=O)(=O)N2CCSc3ccccc32)c[nH]1 | -3.59 |
| O=C(Nc1ccnc2ccnn12)c1ccc(N2CCC(O)CC2)cc1 | 6.12 |
| Cc1c(C(=O)N(CCN(C)C)Cc2ccccn2)oc2ccccc12 | -5.85 |
| CCNC(=O)C1CCN(c2cc(-c3ccccc3F)nc3ccnn23)C1 (configuration not stated) | 14.5 |
| COc1cc(CN2CCC3(CC2)[C@H](O)C[C@@H]3OCCO)ccc1F | -8.63 |
| Cc1nc(CNCC2CCCN2c2cccnn2)cs1 (configuration not stated) | 2.56 |
| Cc1nc(-c2ccc(Cl)s2)sc1C(=O)NCCCC(N)=O | -4.42 |
| CNC(=O)c1cn[nH]c1C1CCN(Cc2ccccc2OC)C1 (configuration not stated) | -8.12 |
| CCNC(=O)[C@@H]1C[C@H](N)CN1C(=O)Cc1cc(C)ccc1C | -12.9 |
| O=C(CCC1CCN(Cc2ccncc2)CC1)Nc1ccccc1Cl | 0.0549 |
| Cc1ccoc1C(=O)N1CCC(n2cc(CO)nn2)CC1 | -3.4 |
| Cc1cnn(CCNCc2nnc(Cc3ccccc3)o2)c1 | -1.13 |
